pIC50: −log10 of the molar value. Where a name gives a salt, the structure may show the parent alone. Read-outs that look alike come from different tables or passages of the source.
Molecular target: T1, IRAK4 (Homo sapiens, UniProt Q9NWZ3)
T1 sequence (Q9NWZ3 1-460): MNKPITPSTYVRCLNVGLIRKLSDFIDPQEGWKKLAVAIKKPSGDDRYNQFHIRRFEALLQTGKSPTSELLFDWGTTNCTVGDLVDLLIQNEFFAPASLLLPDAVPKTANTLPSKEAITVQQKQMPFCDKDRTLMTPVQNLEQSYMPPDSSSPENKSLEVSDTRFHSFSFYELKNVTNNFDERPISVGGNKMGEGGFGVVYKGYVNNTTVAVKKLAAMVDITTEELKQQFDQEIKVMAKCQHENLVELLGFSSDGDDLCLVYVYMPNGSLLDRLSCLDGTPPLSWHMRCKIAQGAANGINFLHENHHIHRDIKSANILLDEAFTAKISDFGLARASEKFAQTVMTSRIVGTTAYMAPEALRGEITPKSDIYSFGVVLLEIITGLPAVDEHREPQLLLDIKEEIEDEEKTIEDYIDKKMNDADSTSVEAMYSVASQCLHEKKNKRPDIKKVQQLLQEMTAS
Experiment: 2-hour 1 mM ATP IRAK4 Biochemical assay (as above, but with 100 pM IRAK4 and 1 mM ATP)
Conditions: for IC50: IRAK4 MSD BIOCHEMICAL (1 mM ATP) IC50 (μM), 100 pM IRAK4, 2 hours
Experimental: The 2-hour 10 μM ATP Biochemical Assay employs a MesoScale Detection (MSD) format.
The activity is quenched with 11 μl of 70 mM EDTA, pH 8.
To detect the phosphorylated biotinylated peptide substrate, 30 μl of the quenched reaction mixture is added to equivalent wells of a 384 well streptavidin coated MesoScale plate (Meso Scale Discovery #L21SA-1). After a 1 hour incubation of the plate for 1 hour at room temperature with gentle mixing, the plate wells are washed 3 times with 50 mM Tris, pH 7.5, 150 mM NaCl, 0.02% Tween-20.
A 25 μl volume of 1:500 anti-P-Threonine Rabbit polyclonal Antibody plus 1:500 Goat-anti-Rabbit Sulfo Tag Antibody (Meso Scale Discovery R32AB-1) in 50 mM Tris, pH 7.5, 150 mM NaCl, 0.02% Tween-20 plus 2% BSA is then added to each well. After a 1-hour incubation of the plate for 1 hour at room temperature with gentle mixing, the plate wells are washed, 3 times with 50 mM Tris, pH 7.5, 150 mM NaCl, 0.02% Tween-20. A 40 μl volume of 2×MSD Read Buffer (Meso Scale Discovery R92TC-1) is added to each well, and the plate is read immediately in an MSD Plate Reader (Meso Scale Discovery).
The 2-hour 1 mM ATP IRAK4 Biochemical assay was performed as described above, but with 100 pM IRAK4 and 1 mM ATP.

Row | SMILES | IC50 [µM] | pIC50 (read-out: IRAK4 MSD BIOCHEMICAL (1 mM ATP) IC50, 100 pM IRAK4, 2 hours)
1 | CC1(C)CCC1Oc1cc2nc(C3CCOCC3)cn2cc1NC(=O)c1cccc(C(F)F)n1 (stereo not drawn) [Example 177, 6-(difluoromethyl)-N-(7-(2,2-dimethylcyclobutoxy)-2-(tetrahydro-2H-pyran-4-yl)imidazo[1,2-a]pyridin-6-yl)picolinamide] | 0.001 | 
2 | CCOc1cc(NC(=O)c2cccc(C(F)(F)F)n2)cn2cc(C3CCOCC3)nc12 [Example 415, N-(8-ethoxy-2-(tetrahydro-2H-pyran-4-yl)imidazo[1,2-a]pyridin-6-yl)-6-(trifluoromethyl)picolinamide hydrochloride] | 0.033 | 
3 | CC12CC(c3cn4cc(NC(=O)c5coc(C(F)F)n5)nc(OC5CCC5)c4n3)(CO1)C2 [Example 485, N-(8-cyclobutoxy-2-(1-methyl-2-oxabicyclo[2.1.1]hexan-4-yl)imidazo[1,2-a]pyrazin-6-yl)-2-(difluoromethyl)oxazole-4-carboxamide 2,2,2-trifluoroacetate] | 0.037 | 
4 | CC(C)Oc1nc2nc(C3C4COCC43)cn2cc1NC(=O)c1ccn(CC(F)F)n1 (stereo not drawn) [Example 503, N-(2-(3-oxabicyclo[3.1.0]hexan-6-yl)-7-isopropoxyimidazo[1,2-a]pyrimidin-6-yl)-1-(2,2-difluoroethyl)-1H-pyrazole-3-carboxamide] | 0.002 | 
5 | CCOc1ncccc1C(=O)Nc1cn2cc(C3CCOCC3)nc2c(OC)n1 [Example 459, 2-ethoxy-N-(8-methoxy-2-(tetrahydro-2H-pyran-4-yl)imidazo[1,2-a]pyrazin-6-yl)nicotinamide] | 0.022 | 
6 | CC(C)Oc1cc2nc(C3CCOCC3)cn2cc1NC(=O)c1coc(C2CCOCC2)n1 [Example 387, N-(7-isopropoxy-2-(tetrahydro-2H-pyran-4-yl)imidazo[1,2-a]pyridin-6-yl)-2-(tetrahydro-2H-pyran-4-yl)oxazole-4-carboxamide 2,2,2-trifluoroacetate] | 0.001 | 
7 | COc1nc(NC(=O)c2cccc(C(F)F)n2)cn2cc(C34CCC(CC3)OC4)nc12 [Example 561, N-(2-(2-oxabicyclo[2.2.2]octan-4-yl)-8-methoxyimidazo[1,2-a]pyrazin-6-yl)-6-(difluoromethyl)picolinamide] | 0.051 | 
8 | O=C(Nc1cc(Cl)c2nc(C3CCOCC3)cn2c1)c1cccc(C(F)F)n1 [Example 308, N-(8-chloro-2-(tetrahydro-2H-pyran-4-yl)imidazo[1,2-a]pyridin-6-yl)-6-(difluoromethyl)picolinamide] | 0.043 | 
9 | CCOc1cc(NC(=O)c2cccc(C(F)F)n2)cn2cc(C34COC(C)(C3)C4)nc12 [Example 414, 6-(difluoromethyl)-N-(8-ethoxy-2-(1-methyl-2-oxabicyclo[2.1.1]hexan-4-yl)imidazo[1,2-a]pyridin-6-yl)picolinamide 2,2,2-trifluoroacetate] | 0.01 | 
10 | CC(C)Oc1cc2nc(C3CCOCC3)cn2cc1NC(=O)c1cc2ncccn2n1 [Example 382, N-(7-isopropoxy-2-(tetrahydro-2H-pyran-4-yl)imidazo[1,2-a]pyridin-6-yl)pyrazolo[1,5-a]pyrimidine-2-carboxamide 2,2,2-trifluoroacetate] | 0.022 | 
11 | CCOc1cc(NC(=O)c2cccc(C(F)(F)F)n2)cn2cc(C3CCCOC3)nc12 (single isomer, unassigned) [Example 288, N-(8-ethoxy-2-(tetrahydro-2H-pyran-3-yl)imidazo[1,2-a]pyridin-6-yl)-6-(trifluoromethyl)picolinamide] | 0.008 | 
12 | COCCCc1cn2cc(NC(=O)c3cccc(C(F)F)n3)cc(OC)c2n1 [Example 282, 6-(difluoromethyl)-N-(8-methoxy-2-(3-methoxypropyl)imidazo[1,2-a]pyridin-6-yl)picolinamide] | 0.007 | 
13 | CC(C)Oc1cc2nc(C3CCOCC3)cn2cc1NC(=O)c1cccc2c1OCC2 [Example 379, N-(7-isopropoxy-2-(tetrahydro-2H-pyran-4-yl)imidazo[1,2-a]pyridin-6-yl)-2,3-dihydrobenzofuran-7-carboxamide] | 0.002 | 
14 | CC(C)Oc1nc2nc(C3C4COCC43)cn2cc1NC(=O)c1coc(C(C)C)n1 (stereo not drawn) [Example 504, N-(2-(3-oxabicyclo[3.1.0]hexan-6-yl)-7-isopropoxyimidazo[1,2-a]pyrimidin-6-yl)-2-isopropyloxazole-4-carboxamide] | 0.002 | 
15 | COc1ncccc1C(=O)Nc1cn2cc(C34COC(C)(C3)C4)nc2c(F)c1OC1CCC1 [Example 436, N-(7-cyclobutoxy-8-fluoro-2-(1-methyl-2-oxabicyclo[2.1.1]hexan-4-yl)imidazo[1,2-a]pyridin-6-yl)-2-methoxynicotinamide 2,2,2-trifluoroacetate] | 0.029 | 
16 | CC(C)Oc1cc2nc(C3CCOC3)cn2cc1NC(=O)c1cccc(C(F)F)n1 (stereo not drawn) [Example 530, 6-(difluoromethyl)-N-(7-isopropoxy-2-(tetrahydrofuran-3-yl)imidazo[1,2-a]pyridin-6-yl)picolinamide 2,2,2-trifluoroacetate] | 0.045 | 
17 | CC(C)Oc1cc2nc(C3CCOCC3)cn2cc1NC(=O)c1ccn(C)n1 [Example 384, N-(7-isopropoxy-2-(tetrahydro-2H-pyran-4-yl)imidazo[1,2-a]pyridin-6-yl)-1-methyl-1H-pyrazole-3-carboxamide] | 0.004 | 
18 | CC12CC(c3cn4cc(NC(=O)c5cccc6ccnn56)cc(OC(F)F)c4n3)(CO1)C2 [Example 422, N-(8-(difluoromethoxy)-2-(1-methyl-2-oxabicyclo[2.1.1]hexan-4-yl)imidazo[1,2-a]pyridin-6-yl)pyrazolo[1,5-a]pyridine-7-carboxamide 2,2,2-trifluoroacetate] | 0.012 | 
19 | CC(C)Oc1nc2nc(C34COC(C)(C3)C4)cn2cc1NC(=O)c1ccn(C)n1 [Example 497, N-(7-isopropoxy-2-(1-methyl-2-oxabicyclo[2.1.1]hexan-4-yl)imidazo[1,2-a]pyrimidin-6-yl)-1-methyl-1H-pyrazole-3-carboxamide] | 0.006 | 
20 | CC(C)Oc1c(NC(=O)c2cccnc2OC(F)F)cn2cc(C34COC(C)(C3)C4)nc2c1F [Example 323, 2-(difluoromethoxy)-N-(8-fluoro-7-isopropoxy-2-(1-methyl-2-oxabicyclo[2.1.1]hexan-4-yl)imidazo[1,2-a]pyridin-6-yl)nicotinamide] | 0.073 | 
21 | COc1c(F)cccc1C(=O)Nc1cn2cc(C34COC(C)(C3)C4)nc2nc1OC(C)C [Example 489, 3-fluoro-N-(7-isopropoxy-2-(1-methyl-2-oxabicyclo[2.1.1]hexan-4-yl)imidazo[1,2-a]pyrimidin-6-yl)-2-methoxybenzamide 2,2,2-trifluoroacetate] | 0.003 | 
22 | COc1nc(NC(=O)c2cccc(C(F)F)n2)cn2cc([C@@]34CC[C@@](C)(C3)OC4)nc12 (single isomer, unassigned) [Example 276, 6-(Difluoromethyl)-N-(8-methoxy-2-((1S*,4R*)-1-methyl-2-oxabicyclo[2.2.1]heptan-4-yl)imidazo[1,2-a]pyrazin-6-yl)picolinamide] | 0.005 | 
23 | COc1nc(NC(=O)c2cccc(C(F)F)n2)cn2cc(C3CCCOC3)nc12 (single isomer, unassigned) [Example 298, 6-(difluoromethyl)-N-(8-methoxy-2-(tetrahydro-2H-pyran-3-yl)imidazo[1,2-a]pyrazin-6-yl)picolinamide] |  | 8.40
24 | CC(C)Oc1cc2nc(C3CCOCC3)cn2cc1NC(=O)c1cc(C(F)F)cs1 [Example 232, 4-(difluoromethyl)-N-(7-isopropoxy-2-(tetrahydro-2H-pyran-4-yl)imidazo[1,2-a]pyridin-6-yl)thiophene-2-carboxamide] | 0.044 | 
25 | CC(C)Oc1cc2nc(C3CCOCC3)cn2cc1NC(=O)c1cccc(C2CCOC2)n1 (stereo not drawn) [Example 380, N-(7-isopropoxy-2-(tetrahydro-2H-pyran-4-yl)imidazo[1,2-a]pyridin-6-yl)-6-(tetrahydrofuran-3-yl)picolinamide hydrochloride] | 0.002 | 
26 | COc1nc(NC(=O)c2cccc(C(F)F)n2)cn2cc(C34COC(CF)(C3)C4)nc12 [Example 559, 6-(difluoromethyl)-N-(2-(1-(fluoromethyl)-2-oxabicyclo[2.1.1]hexan-4-yl)-8-methoxyimidazo[1,2-a]pyrazin-6-yl)picolinamide] | 0.012 | 
27 | COc1nc(NC(=O)c2coc(C)n2)cn2cc(C34CCC(C)(C3)OC4)nc12 (stereo not drawn) [Example 471, N-(8-methoxy-2-(1-methyl-2-oxabicyclo[2.2.1]heptan-4-yl)imidazo[1,2-a]pyrazin-6-yl)-2-methyloxazole-4-carboxamide 2,2,2-trifluoroacetate] | 0.022 | 

— US20220089592A1, “IMIDAZO[1,2-A]PYRIDINYL DERIVATIVES AS IRAK4 INHIBITORS” (priority 2019, published 2022)
